From US20240228543A1, “CYCLIC PEPTIDE INHIBITORS OF USP22” (THE JOHNS HOPKINS UNIVERSITY, priority 2021, published 2024)
Where “and” joins values, the source holds several entries; their conditions need not be identical. Identical values can stand only once. Positions of bridges follow the written chain, without caps; N, C: chain ends. Non-standard residues stand in square brackets, D forms with d. Residues, ends and D or L forms follow the SMILES beside them.

Columns and labels:
[1] = target: T1, human DUB module (hDUBm; USP22, ATXN7, ATXN7L3, ENY2) (Homo sapiens, UniProt Q9UPT9); assay: Ub-AMC deubiquitination assay, human DUB module; format: biochemical; settings: Ki (apparent, Morrison approximation), Ub-AMC cleavage, 200 nM DUB, 1 μM Ub-AMC
T1 construct: 6xHis (TEV-cleavable) (N, cleaved yes); made in house; host or cells: High Five insect cells (baculovirus, Bac2Bac; virus amplified in Sf9)
T1 sequence (Q9UPT9 whole entry, one chain of several): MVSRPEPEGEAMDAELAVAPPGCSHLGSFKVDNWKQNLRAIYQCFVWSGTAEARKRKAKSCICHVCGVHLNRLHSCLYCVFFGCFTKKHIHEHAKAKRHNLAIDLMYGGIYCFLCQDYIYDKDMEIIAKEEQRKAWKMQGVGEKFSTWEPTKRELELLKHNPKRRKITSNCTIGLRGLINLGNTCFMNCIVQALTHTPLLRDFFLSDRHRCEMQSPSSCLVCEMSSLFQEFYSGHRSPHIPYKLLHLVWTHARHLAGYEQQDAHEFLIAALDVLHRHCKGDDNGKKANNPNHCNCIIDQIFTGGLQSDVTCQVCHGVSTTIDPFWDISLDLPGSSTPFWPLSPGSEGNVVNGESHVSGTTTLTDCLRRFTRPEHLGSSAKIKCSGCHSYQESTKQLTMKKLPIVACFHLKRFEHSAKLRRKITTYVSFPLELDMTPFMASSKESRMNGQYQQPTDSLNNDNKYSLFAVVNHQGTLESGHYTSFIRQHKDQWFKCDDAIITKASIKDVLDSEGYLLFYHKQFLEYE
T1 sequence (O15265 3-151 partner limits assumed, one chain of several): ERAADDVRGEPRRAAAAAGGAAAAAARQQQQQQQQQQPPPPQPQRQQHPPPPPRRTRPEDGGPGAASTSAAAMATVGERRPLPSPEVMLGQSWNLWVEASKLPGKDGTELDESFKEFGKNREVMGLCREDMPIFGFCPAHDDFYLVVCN
Experimental: FIG. 2A is a graph of initial rates of Ub-AMC cleavage by hDUB module as a function of substrate concentration. […] FIGS. 2B-2G are graphs of each cyclic peptide, as indicated, tested for its ability to inhibit Ub-AMC cleavage in the presence of increasing amounts of the peptide into a reaction with a fixed amount of DUB (200 nM) and Ub-AMC (1 μM). Ki values were determined for each curve using the Morrison Ki approximation.
Ub-AMC deubiquitination assay A working stock mixture of either yDUBm or hDUBm was prepared in the presence of either DMSO (mock) or a dilution series of the cyclic peptide. […] Each enzyme:peptide mixture was incubated for 30 min at 30° C. in the case of yDUBm, and 37° C. in the case of hDUBm, with each enzyme complex at 1.033× the desired concentration (207 nM). The enzyme:peptide mixture ([…]) was added to 1 μL of 30 μM U b-AMC (7-amino-4-methylcoumarin) (Boston Biochem), for a final concentration of 200 nM DUBm, the indicated cyclic peptide concentration, and 1 μM Ub-AMC. DUB activity was measured by observing the increase in AMC fluorescence in a plate reader, and the initial rate of fluorescence increase was calculated and plotted as a function of inhibitor concentration (FIGS. 2B-2I). The Ki values were determined using the Morrison approximation of enzyme inhibition equilibria within Prism (Graphpad).
The cyclic peptides that constituted potential inhibitors were chemically synthesized by solid phase peptide synthesis and tested for their effectiveness and specificity as inhibitors in vitro. Since the enzyme kinetics of the human DUB module had not previously been characterized, hDUBm activity was assayed using the fluorogenic substrate, ubiquitin-amino methyl coumarin (Ub-AMC) (FIG. 2A).

[2] = target: T2, USP51/ATXN7L3/ENY2 (Homo sapiens, UniProt Q70EK9); assay: Inhibition of H2B DUB complexes, Ub-AMC cleavage: USP51 complex; format: biochemical; settings: 1000 nM complex, 5 μM Ub-AMC
T2 construct: made in house
T2 sequence (Q70EK9 1-711): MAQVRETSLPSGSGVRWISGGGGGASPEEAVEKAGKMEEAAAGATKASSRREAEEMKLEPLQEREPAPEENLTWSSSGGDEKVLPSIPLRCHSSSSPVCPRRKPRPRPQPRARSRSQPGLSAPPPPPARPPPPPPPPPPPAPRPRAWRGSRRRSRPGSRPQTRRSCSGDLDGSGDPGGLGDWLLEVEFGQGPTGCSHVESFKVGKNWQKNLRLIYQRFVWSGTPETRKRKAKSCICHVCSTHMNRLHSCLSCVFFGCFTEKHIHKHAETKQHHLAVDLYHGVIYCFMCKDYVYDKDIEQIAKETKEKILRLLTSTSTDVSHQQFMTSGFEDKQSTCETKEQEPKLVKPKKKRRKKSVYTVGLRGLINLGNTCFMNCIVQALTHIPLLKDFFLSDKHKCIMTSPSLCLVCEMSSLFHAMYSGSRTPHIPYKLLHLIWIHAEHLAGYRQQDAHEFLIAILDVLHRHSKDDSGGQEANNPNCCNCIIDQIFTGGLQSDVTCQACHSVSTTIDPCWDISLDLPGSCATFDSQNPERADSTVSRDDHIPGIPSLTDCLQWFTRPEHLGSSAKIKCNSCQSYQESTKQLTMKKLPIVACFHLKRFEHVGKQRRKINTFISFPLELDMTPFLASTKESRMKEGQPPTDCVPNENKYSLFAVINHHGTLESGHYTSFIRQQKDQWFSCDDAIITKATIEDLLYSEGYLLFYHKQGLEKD
T2 sequence (Q14CW9 1-347 partner): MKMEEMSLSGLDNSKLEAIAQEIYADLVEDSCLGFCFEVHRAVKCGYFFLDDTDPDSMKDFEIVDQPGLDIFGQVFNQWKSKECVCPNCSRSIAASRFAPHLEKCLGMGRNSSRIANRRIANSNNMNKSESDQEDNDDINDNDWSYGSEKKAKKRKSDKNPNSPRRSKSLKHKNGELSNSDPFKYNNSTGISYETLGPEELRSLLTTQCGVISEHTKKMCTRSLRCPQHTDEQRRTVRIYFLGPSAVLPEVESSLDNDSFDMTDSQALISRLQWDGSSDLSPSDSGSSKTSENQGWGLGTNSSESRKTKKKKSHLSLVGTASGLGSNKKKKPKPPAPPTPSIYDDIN
T2 sequence (Q9NPA8 1-101 partner): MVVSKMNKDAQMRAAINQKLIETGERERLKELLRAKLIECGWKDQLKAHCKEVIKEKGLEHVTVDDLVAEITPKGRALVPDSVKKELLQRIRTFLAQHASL
Experimental: Cleavage rates of 5 μM Ub-AMC were assayed for 75 nM USP22/ATXN7L3/ENY2/ATXN7 (hDUBm), 100 nM USP27x/ATXN7L3/ENY2, or 1000 nM USP51/ATXN7L3/ENY2. Rates were normalized to the uninhibited reaction in each case to determine the fraction of apparent activity.
DUB specificity assays Ubiquitin-rhodamine(110)-glycine cleavage rates were measured for all DUBs available in the DUBprofiler™ panel with two independent replicates (44 in total; Ubiquigent). […] USP22 was not included in the panel, and is not represented in FIG. 12A. […] Initial cleavage rates of each complex were measured on a fixed concentration of 5 μM Ub-AMC.
Heterotrimeric complexes containing USP27x and USP51 were purified, respectively, in complex with ENY2 and ATXN7L3. The activity of these complexes on Ub-AMC was compared to that of the human DUBm, which contains USP22, ENY2, ATXN7L3, and a fourth subunit, ATXN7, that anchors the DUBm to the rest of the SAGA complex.

## CC[C@H](C)[C@@H]1NC(=O)[C@H](C)NC(=O)[C@@H](Cc2ccc(O)cc2)NC(=O)CSC[C@@H](C(N)=O)NC(=O)[C@H](CC(C)C)NC(=O)[C@H](CC(C)C)NC(=O)[C@H]([C@@H](C)O)NC(=O)[C@H]([C@@H](C)O)NC(=O)[C@H](CCCCN)NC(=O)CNC(=O)[C@H](CCCNC(=N)N)NC(=O)[C@H](Cc2ccc(O)cc2)NC(=O)[C@H](CO)NC1=O [hD1] ({CH2CO}-[dY]AISYRGKTTLLC-NH2; thioether N-13)
[1]
  Ki: < 100 nM and 20.6 nM
[2]
  IC50: > 250000 nM
